Tests used:
bone marrow derived DCs = test: Cytolytic activity of CD8(+) T cells from immunized mice against dendritic cells in vitro; type: cell-based
Description: In Vitro Generation of BM-Derived dendritic cells (BMDCs) The method for generating BMDC with GM-CSF was adapted from previous publication with modification. (19) Briefly, bone marrow cells from femurs and tibiae of male apoE−/− mice were plated into 10 cm culture plates (Falcon) with 20 ml complete RPMI-1640 containing 10 ng/ml GM-CSF (R&D Systems) and 10 ng/ml IL-4 (Invitrogen). Cells were washed and fed on day 3 and day 5 by removing the old medium followed by replenishing with fresh culture medium with GM-CSF and IL-4. On day 8, the immature DC appeared as non-adherent cells under the microscope and harvested by vigorous pipetting and subcultured into new culture plates with 2×10^5 DCs in 1.5 ml medium.
CD8(+) T-cells were negatively isolated using a CD8 selection Dynabeads kit (Invitrogen) per manufacturer's protocol. The selected CD8(+) T-cells were then co-culture with DCs in a CD8:DC ratio of 3:1. A series of pilot studies has been performed to determine the optimal CD8:DC ratio for this assay. After co-culture for 4 hours, cells were collected and processed for flow cytometric determination of CD11c and 7-AAD by LSR II flow cytometer (BD Biosciences) and data was analyzed with Summit V4.3 software. Dendritic cell death without CD8(+) T-cells in the co-culture was used as baseline and percentage of specific lysis of cells was calculated using a method described previously. (20)
One week after the third immunization, mice were euthanized to collect spleen CD8^+ T cells. Bone-marrow derived DCs were differentiated from naïve apoE−/− mice and used as target cells. […]
Applicants therefore assessed the effect of the vaccine on cytotoxic activity of CD8^+ T cells against syngeneic bone marrow-derived DCs. […] Cells were collected and processed for flow cytometric determination of CD11c^+ and 7-AAD 4 hours later.^20 Dendritic cell death without CD8^+ T cells in the co-culture was used as baseline and percentage of specific lysis of cells was calculated using a method described previously.^20

[1] = test system: naïve male apoE (−/−) recipient mice; test: Adoptive transfer of cells from immunized donors to naive apoE (−/−) recipients; type: in vivo
From the text: Adoptive transfer experiment Male apoE (−/−) mice on regular chow received subcutaneous immunization as described in previous paragraph and were sacrificed at 13 weeks of age as donors. Splenocytes from the same treatment group were pooled before cell isolation. Donor CD8(+) T-cells, CD4(+)CD25(+) T-cells or B-cells were isolated using Dynabeads FlowComp (Invitrogen) according to the manufacturer's protocols. CD4(+) T-cells were negatively selected from the splenocytes followed by positive selection of CD4(+)CD25(+) cells. B cells were negatively isolated whereas CD8(+) T-cells were positively isolated first and released from beads. The purity of pooled CD8(+) T-cells, CD4(+)CD25(+) T-cells and B-cells was 90%, 80% and 70%, respectively. The isolated CD8(+) T-cells (1×10^6 cells/mouse), CD4(+)CD25(+) T-cells (1×10^5 or 3×10^5 cells/mouse) or B-cells (2×10^7 cells/mouse) were then adoptively transferred to naïve male apoE (−/−) recipient mice at 6-7 weeks of age via tail vein injection. In the published literatures of vascular biology, the number of adoptively transferred lymphocytes varied greatly. For B-cells transfer, the number of 2×10^7 cells/mouse was chosen based on two prior reports. (11),(12) For CD4(+)CD25(+) T-cells transfer, the number of cells transferred ranged from 5×10^4 cells/mouse to 1×10^6 cells/mouse in the published literature. […]

[2] = test system: CD8+CD25− T cells co-cultured with DCs; test: Presentation of p210 by DCs to CD8+CD25− T cells in co-culture; type: cell-based; settings: 48 hours, DCs treated with LPS, compared to untreated or LPS only treated co-cultures
From the text: The p210 peptide contains the proteoglycan binding site of the apoB-100 molecule. This peptide is a cell-penetrating peptide capable of efficiently delivering antigens for cross-presentation to cytotoxic CD8^+ T cells.^53 Applicants therefore assessed activation of CD8^+CD25^− T cells co-cultured with DCs loaded with p210 and matured with LPS.

BMDCs = test: Endocytosis of FITC-labeled p210 by DCs in vitro; type: cell-based, mice; settings: FITC fluorescence in BMDCs
From the text: Peptide loading on BMDCs was defined using p210 labeled with FITC (FITC conjugating kit from Pierce).

[3] = test system: AngII-infused male apoE KO mice; test: Blood pressure and heart rate in angiotensin II-infused apoE KO mice after P210 immunization; type: in vivo; settings: apoE KO mice immunized s.c. 100 μg at 7, 10, 12 weeks; AngII 1000 ng/Kg/min; 4 weeks after pump implantation
Description: Saline was delivered to the control group.
Angiotensin II infusion via implanted osmotic pump was started at 10 weeks of age. Mice were euthanized at 14 weeks of age. Blood pressure was measured throughout the duration of experiment.

male apoE (−/−) mice = test: Athero-protective effect of p210 immunization in apoE (−/−) mice on high cholesterol chow; type: in vivo; settings: 100 μg dose compared to 25 or 50 μg dose
From the text: Selection of peptides and their preparation for immunization The establishment and screening of human apoB-100 peptides has been reported (8). Based on Applicants pilot experiments and prior reports, (9),(10) Applicants selected peptide 210 (p210, KTTKQ SFDLS VKAQY KKNKH—SEQ ID NO: 210) as a candidate immunogen. Native p210 peptide (Euro-Diagnostica AB, Sweden) was conjugated to cationic bovine serum albumin (cBSA) as carrier using a method described previously. (3),(4) Alum was used as adjuvant and mixed with peptide/cBSA conjugate with 1:1 ratio in volume. Peptide conjugation and mixing with alum were prepared fresh prior to each immunization.
Immunization protocols Male apoE (−/−) mice (Jackson Laboratories) were housed in an animal facility accredited by the American Association of Accreditation of Laboratory Animal Care and kept on a 12-hour day/night cycle with unrestricted access to water and food. The Institutional Animal Care and Use Committee of Cedars-Sinai Medical Center approved the experimental protocols. […] Mice, maintained on normal chow diet, received subcutaneous primary immunization in the dorsal area between scapulas at 6-7 weeks of age, followed by a booster at 9 and 12 weeks of age. One week after last booster, diet was switched to high cholesterol chow (TD 88137, Harlan-Teklad) and continued until euthanasia at the age of 25 weeks. […]

[4] = CD8(+) T-cells from immunized mice vs PBS or cBSA/alum

KTTKQ SFDLS VKAQY KKNKH (KTTKQSFDLSVKAQYKKNKH) [p210, amino acids 3136-3155 of human apoB-100]
granzyme B expression of CD8(+) T-cells (bone marrow derived DCs; [4]): increased granzyme B expression | perforin level of CD8(+) T-cells (bone marrow derived DCs; [4]): no difference in perforin level | cytolytic activity after depletion of CD25+ cells (bone marrow derived DCs; CD8+ T cells depleted of CD25+ cells): abrogated the increased cytolytic activity | lesion size in recipients of CD4(+)CD25(+) T-cells ([1]; 1×10^5 cells/mouse): no difference in lesion size | lesion size in recipients of CD4(+)CD25(+) T-cells ([1]; 3×10^5 cells/mouse): did not reduce lesion sizes | activated CD8+CD25+ T cells after co-culture with p210-loaded DCs [2]: significantly increased CD8^+CD25^+ T cells | uptake of FITC-labeled p210 by dendritic cells (BMDCs): endocytosed by DCs | reduction in blood pressure [3]: about 11% | athero-reduction by dose (pilot experiment) (male apoE (−/−) mice): optimum athero-reduction

Source: US9205141B2, “Immunomodulatory methods and systems for treatment and/or prevention of hypertension” (Cardio Vax, LLC, priority 2010, dated 2015)
